Values quoted from earlier work in US20250250278A2, “BRIARANE COMPOUNDS AND THEIR USE” (National Health Research Institutes, priority 2022, published 2025).

Experiments:
[1] = test system: inducible nitric oxide synthase (iNOS) mRNA; conditions: LPS-challenged murine macrophages
[2] = test system: cyclooxygenase-2 (COX-2) mRNA; conditions: LPS-challenged murine macrophages
[3] = not given; remark: listed apart in the source

For excavatolide B [ExcB], the “inhibition of mRNA expression of iNOS” value [1] is listed as “significantly inhibiting”, the “inhibition of mRNA expression of COX-2” value [2] is listed as “significantly inhibiting” and the solubility in water is listed as “poor”. The bioavailability [3] was “low”.
